≈ marks a conversion by molar mass, not a printed value.
test: Intrinsic solubility of the compound in water; conditions: buffer

In the case of `O=C(O)C(O)c1ccccc1Cl` (centres undefined), the solubility is reported as “Soluble”.
For `O=c1[nH]cc(F)c(=O)[nH]1` [FLUOROURACIL], the solubility was “Soluble”.
With `CN1CCN(c2c(F)cc3c(=O)c(C(=O)O)cn4c3c2OCN4C)CC1` [MARBOFLOXACIN] the solubility was “Soluble”.
With `C[C@@H]1CN(c2c(F)c(F)c3c(=O)c(C(=O)O)cn(C4CC4)c3c2F)C[C@H](C)N1` [ORBIFLOXACIN] the solubility was “Soluble”.
For `CCN(CC)CCNC(=O)c1ccc(N)cc1` [PROCAINAMIDE], the solubility was “Soluble”.

In order of rising solubility:
1. CN(C)C(=O)C(CCN1CCC(O)(c2ccc(Cl)cc2)CC1)(c1ccccc1)c1ccccc1 [LOPERAMIDE]  0.04 µg/mL (≈ 0.0838 µM)
2. Cc1cccc(CN2CCN(C(c3ccccc3)c3ccc(Cl)cc3)CC2)c1 (centres undefined) [MECLIZINE]  0.13 µg/mL (≈ 0.333 µM)
3. Cc1ccc(Cl)c(Nc2ccccc2C(=O)O)c1Cl [MECLOFENAMIC ACID]  0.16 µg/mL (≈ 0.54 µM)
4. O=C(O)c1cc(/N=N/c2ccc(S(=O)(=O)Nc3ccccn3)cc2)ccc1O [SULFASALAZINE]  0.29 µg/mL (≈ 0.728 µM)
5. CN(C)CCCN1c2ccccc2Sc2ccc(Cl)cc21 [CHLORPROMAZINE]  2.7 µg/mL (≈ 8.47 µM)
6. CN[C@H]1CC[C@@H](c2ccc(Cl)c(Cl)c2)c2ccccc21 [SERTRALINE]  4.5 µg/mL (≈ 14.7 µM)
7. CC(=O)CC(c1ccccc1)c1c(O)c2ccccc2oc1=O (centres undefined) [WARFARIN]  5.1 µg/mL (≈ 16.5 µM)
8. CNCCCC12CCC(c3ccccc31)c1ccccc12 [MAPROTILINE]  5.6 µg/mL (≈ 20.2 µM)
9. COc1ccccc1OCCNCC(O)COc1cccc2[nH]c3ccccc3c12 (centres undefined) [CARVEDILOL]  22.6 µg/mL (≈ 55.6 µM)
10. CNCCC=C1c2ccccc2CCc2ccccc21 [NORTRIPTYLINE]  25 µg/mL (≈ 94.9 µM)
11. CC(C(=O)O)c1cccc(Oc2ccccc2)c1 (centres undefined) [FENOPROFEN]  48 µg/mL (≈ 198 µM)
12. CC1CCc2cc(F)cc3c(=O)c(C(=O)O)cn1c23 (centres undefined) [FLUMEQUINE]  48 µg/mL (≈ 184 µM)
13. O=C1CN(/N=C/c2ccc([N+](=O)[O-])o2)C(=O)N1 [NITROFURANTOIN]  137 µg/mL (≈ 575 µM)
14. Cn1cnc([N+](=O)[O-])c1Sc1ncnc2nc[nH]c12 [AZATHIOPRINE]  172 µg/mL (≈ 620 µM)
15. NC(N)=Nc1nc(CSCCC(N)=NS(N)(=O)=O)cs1 [FAMOTIDINE]  760 µg/mL (≈ 2250 µM)
16. CNC(=C[N+](=O)[O-])NCCSCc1ccc(CN(C)C)o1 [RANITIDINE]  990 µg/mL (≈ 3150 µM)
17. O=C(O)c1ccccc1O [SALICYLIC ACID]  1620 µg/mL (≈ 11700 µM)
18. O=C(O)c1ccccc1C(=O)O [PHTHALIC ACID]  4130 µg/mL (≈ 24900 µM)

same assay, conditions: water

In order of rising solubility:
1. Cc1cccc(Nc2ccccc2C(=O)O)c1C [MEFENAMIC ACID]  0.04 µg/mL (≈ 0.166 µM)
2. O=C(O)c1cc(-c2ccc(F)cc2F)ccc1O [DIFLUNISAL]  0.29 µg/mL (≈ 1.16 µM)
3. OCCN(CCO)c1nc(N2CCCCC2)c2nc(N(CCO)CCO)nc(N3CCCCC3)c2n1 [DIPYRIDAMOLE]  3.46 µg/mL (≈ 6.86 µM)
4. Clc1ccc(COC(Cn2ccnc2)c2ccc(Cl)cc2Cl)c(Cl)c1 (centres undefined) [MICONAZOLE]  3.5 µg/mL (≈ 8.41 µM)
5. CCCN(CCC)S(=O)(=O)c1ccc(C(=O)O)cc1 [PROBENECID]  3.9 µg/mL (≈ 13.7 µM)
6. CC(CN(C)C)CN1c2ccccc2CCc2ccccc21 (centres undefined) [TRIMIPRAMINE]  4.8 µg/mL (≈ 16.3 µM)
7. CN1C(C(=O)Nc2ccccn2)=C(O)c2ccccc2S1(=O)=O [PIROXICAM]  5.2 µg/mL (≈ 15.7 µM)
8. CC(C(=O)O)c1ccc2c(c1)[nH]c1ccc(Cl)cc12 (centres undefined) [CARPROFEN]  5.5 µg/mL (≈ 20.1 µM)
9. Nc1nc2nc[nH]c2c(=O)[nH]1 [GUANINE]  5.6 µg/mL (≈ 37.1 µM)
10. NS(=O)(=O)c1cc2c(cc1Cl)N=C(CSCc1ccccc1)NS2(=O)=O [BENZTHIAZIDE]  6.4 µg/mL (≈ 14.8 µM)
11. CN(C)CCC=C1c2ccccc2CCc2ccccc21 [AMITRIPTYLINE]  7.8 µg/mL (≈ 28.1 µM)
12. Nc1ccc(/N=N/c2ccccc2)c(N)n1 [PHENAZOPYRIDINE]  13.7 µg/mL (≈ 64.2 µM)
13. CCCCOc1cc(C(=O)NCCN(CC)CC)c2ccccc2n1 [DIBUCAINE]  14 µg/mL (≈ 40.8 µM)
14. CC(C(=O)O)c1ccc(-c2ccccc2)c(F)c1 (centres undefined) [FLURBIPROFEN]  17.2 µg/mL (≈ 70.4 µM)
15. CCc1nc(N)nc(N)c1-c1ccc(Cl)cc1 [PYRIMETHAMINE]  19.4 µg/mL (≈ 78 µM)
16. Cc1ccc(C(=O)c2ccc(CC(=O)O)n2C)cc1 [TOLMETIN]  21 µg/mL (≈ 81.6 µM)
17. CN(C)CCCN1c2ccccc2CCc2ccccc21 [IMIPRAMINE]  22 µg/mL (≈ 78.5 µM)
18. O=C1NC(=O)C(c2ccccc2)(c2ccccc2)N1 [PHENYTOIN]  35 µg/mL (≈ 139 µM)
19. CC(C)NCC(O)COc1cccc2[nH]ccc12 (centres undefined) [PINDOLOL]  40 µg/mL (≈ 161 µM)
20. COc1ccc(Cc2nccc3cc(OC)c(OC)cc23)cc1OC [PAPAVERINE]  46 µg/mL (≈ 136 µM)
21. CCn1cc(C(=O)O)c(=O)c2ccc(C)nc21 [NALIDIXIC ACID]  57 µg/mL (≈ 245 µM)
22. CNCCCN1c2ccccc2CCc2ccccc21 [DESIPRAMINE]  63 µg/mL (≈ 236 µM)
23. c1ccc2[nH]c(-c3cscn3)nc2c1 [THIABENDAZOLE]  66 µg/mL (≈ 328 µM)
24. NCCc1c[nH]c2ccccc12 [TRYPTAMINE]  80 µg/mL (≈ 499 µM)
25. CCCCNC(=O)NS(=O)(=O)c1ccc(C)cc1 [TOLBUTAMIDE]  93 µg/mL (≈ 344 µM)
26. CC1=NS(=O)(=O)c2cc(Cl)ccc2N1 [DIAZOXIDE]  100 µg/mL (≈ 434 µM)
27. CN1CCN(c2cc3c(cc2F)c(=O)c(C(=O)O)cn3-c2ccc(F)cc2)CC1 [DIFLOXACIN]  100 µg/mL (≈ 250 µM)
28. O=c1n(CCCN2CCN(c3cccc(Cl)c3)CC2)nc2ccccn12 [TRAZODONE]  127 µg/mL (≈ 342 µM)
29. CCCNC(=O)NS(=O)(=O)c1ccc(Cl)cc1 [CHLORPROPAMIDE]  156 µg/mL (≈ 564 µM)
30. C[C@@H]1CN(c2c(F)c(N)c3c(=O)c(C(=O)O)cn(C4CC4)c3c2F)C[C@H](C)N1 [SPARFLOXACIN]  167 µg/mL (≈ 426 µM)
31. Nc1ccc(Br)cc1C(=O)O  182 µg/mL (≈ 842 µM)
32. CN1CCN(C2=Nc3cc(Cl)ccc3Nc3ccccc32)CC1 [CLOZAPINE]  189 µg/mL (≈ 578 µM)
33. CCN1CCN(c2cc3c(cc2F)c(=O)c(C(=O)O)cn3C2CC2)CC1 [ENROFLOXACIN]  237 µg/mL (≈ 659 µM)
34. CCCCNc1ccc(C(=O)OCCN(C)C)cc1 [TETRACAINE]  258 µg/mL (≈ 976 µM)
35. O=C(O)c1cn(-c2ccc(F)cc2)c2cc(N3CCNCC3)c(F)cc2c1=O [SARAFLOXACIN]  280 µg/mL (≈ 727 µM)
36. NS(=O)(=O)c1cc2c(cc1C(F)(F)F)NCNS2(=O)=O [HYDROFLUMETHIAZIDE]  360 µg/mL (≈ 1090 µM)
37. C=CCN1CC[C@]23c4c5ccc(O)c4O[C@H]2C(=O)CC[C@@]3(O)[C@H]1C5 [NALOXONE]  414 µg/mL (≈ 1260 µM)
38. Cc1nnc(NS(=O)(=O)c2ccc(N)cc2)s1 [SULFAMETHIZOLE]  450 µg/mL (≈ 1660 µM)
39. CC(=O)OCC1=C(C(=O)O)N2C(=O)[C@@H](NC(=O)Cc3cccs3)[C@H]2SC1 [CEPHALOTHIN]  457 µg/mL (≈ 1150 µM)
40. O=C(O)c1cc(Br)c(O)cc1O  559 µg/mL (≈ 2400 µM)
41. CCn1cc(C(=O)O)c(=O)c2cc(F)c(N3CCNCC3)cc21 [NORFLOXACIN]  559 µg/mL (≈ 1750 µM)
42. C#CCN(C)[C@H](C)Cc1ccccc1 [SELEGILINE]  575 µg/mL (≈ 3070 µM)
43. C=CCc1ccccc1OCC(O)CNC(C)C (centres undefined) [ALPRENOLOL]  580 µg/mL (≈ 2330 µM)
44. CCCC(=O)Nc1ccc(OCC(O)CNC(C)C)c(C(C)=O)c1 (centres undefined) [ACEBUTOLOL]  711 µg/mL (≈ 2110 µM)
45. CCOC(=O)c1ccc(N)cc1 [BENZOCAINE]  780 µg/mL (≈ 4720 µM)
46. c1ccc(Cn2ccnc2)cc1 [BENZYLIMIDAZOLE]  874 µg/mL (≈ 5520 µM)
47. CCn1cc(C(=O)O)c(=O)c2cc(F)c(N3CCNC(C)C3)c(F)c21 (centres undefined) [LOMEFLOXACIN]  1630 µg/mL (≈ 4640 µM)
48. NC12CC3CC(CC(C3)C1)C2 [AMANTADINE]  2120 µg/mL (≈ 14000 µM)
49. Oc1ccc(I)cc1  4250 µg/mL (≈ 19300 µM)
50. CCN(CC)CCOC(=O)c1ccc(N)cc1 [PROCAINE]  4500 µg/mL (≈ 19000 µM)
51. O=C(O)c1ccc(O)cc1 [PARABEN]  4740 µg/mL (≈ 34300 µM)
